According to ChEMBL document CHEMBL5303304, “EUbOPEN Chemogenomics Library - IncuCyte” (2023):

Experiments:
Assay type in all cases: toxicity, cell-based
U2OS = test: Incucyte cell viability with U2OS; conditions: human, 10 µM, compound concentration 10 uM
Fibroblast = test: Incucyte cell viability with human fibroblast; conditions: 10 µM, compound concentration 10 uM
HEK-293T = test: Incucyte cell viability with HEK293T; conditions: human, 10 µM, compound concentration 10 uM
Further: unitless GR value; below 1 slowed growth and below 0 cell loss.

SMILES | Growth Rate (U2OS; 6 h, replicate number 2) | Growth Rate (U2OS; 12 h, replicate number 1) | Growth Rate (U2OS; 12 h, replicate number 2) | Growth Rate (U2OS; 24 h, replicate number 1) | Growth Rate (Fibroblast; 6 h, replicate number 1) | Growth Rate (Fibroblast; 12 h, replicate number 1) | Growth Rate (Fibroblast; 12 h, replicate number 2) | Growth Rate (Fibroblast; 18 h, replicate number 1) | Growth Rate (Fibroblast; 24 h, replicate number 1) | Growth Rate (Fibroblast; 24 h, replicate number 2) | Growth Rate (HEK-293T; 6 h, replicate number 1) | Growth Rate (HEK-293T; 6 h, replicate number 2) | Growth Rate (HEK-293T; 12 h, replicate number 1) | Growth Rate (HEK-293T; 12 h, replicate number 2) | Growth Rate (HEK-293T; 18 h, replicate number 1) | Growth Rate (HEK-293T; 18 h, replicate number 2) | Growth Rate (HEK-293T; 24 h, replicate number 1) | Growth Rate (HEK-293T; 24 h, replicate number 2) | Growth Rate (U2OS; 6 h, replicate number 1) | Growth Rate (Fibroblast; 0 h, replicate number 1) | also measured
Cc1nccn1-c1ccc(Sc2cccc(C3(C(N)=O)CCOCC3)c2)cc1 | 0.9 | 0.88 | 0.71 | 0.88 | 0.34 | 0.28 | 0.59 | 0.33 | 0.45 | 0.71 | 0.3 | -0.79 | 0.47 | -0.38 | 0.41 | -0.09 | 0.4 | 0.1 |  |  | Growth Rate (U2OS; 18 h, replicate number 2): 0.78; Growth Rate (U2OS; 24 h, replicate number 2): 0.81; Growth Rate (Fibroblast; 0 h, replicate number 2): 0.46; Growth Rate (Fibroblast; 6 h, replicate number 2): -0.58; Growth Rate (Fibroblast; 18 h, replicate number 2): 0.72
Cc1cc(C)nc(Nc2ncc(C(=O)NCCc3c(C)[nH]c4ccccc34)cn2)c1.Cl | 0.75 | 0.79 | 0.87 | 0.98 |  |  |  |  |  | 0.93 | 0.92 | 0.14 |  | 0.82 | 0.94 | 1 | 0.99 |  | 0.56 | -1 | Growth Rate (U2OS; 0 h, replicate number 2): 0.92; Growth Rate (U2OS; 18 h, replicate number 1): 0.77
Cc1nc2ccc(Oc3ccc(F)cc3)cc2c(=O)n1C[C@H]1CCCN(C(C)C)C1.Cl |  |  |  | 0.95 | 0.24 | 0.12 | 0.34 | 0.13 | 0.18 | 0.73 | 0.43 | 0.87 | 0.27 | 0.35 | 0.16 | 0.4 | 0.17 | 0.23 | 0.84 | -1 | Growth Rate (U2OS; 0 h, replicate number 1): 0.57; Growth Rate (U2OS; 0 h, replicate number 2): -0.36; Growth Rate (Fibroblast; 18 h, replicate number 2): 0.69
N[C@@H]1CCCC[C@H]1Oc1ccc2ncc(-c3cc4ccccc4o3)n2n1 | -0.91 | -0.95 | -0.8 | -0.75 | -0.12 | -0.57 | -0.62 | -0.67 | -0.62 | -0.55 | -0.98 | -0.97 | -0.86 | -0.77 | -0.66 | -0.63 | -0.53 | -0.43 | -0.96 | -1 | Growth Rate (U2OS; 0 h, replicate number 1): -0.99; Growth Rate (U2OS; 18 h, replicate number 1): -0.88; Growth Rate (U2OS; 18 h, replicate number 2): -0.72; Growth Rate (U2OS; 24 h, replicate number 2): -0.63; Growth Rate (Fibroblast; 6 h, replicate number 2): -0.77; Growth Rate (Fibroblast; 18 h, replicate number 2): -0.65
CN(CCCCCCC1=C(c2cc(F)cc(F)c2)CCCc2cc(O)ccc21)CCCCS(=O)(=O)CCCC(F)(F)F | -0.93 | -0.94 | -0.68 | -0.72 | -0.99 | -0.97 |  | -0.89 | -0.77 | -0.65 | -0.95 | -0.98 | -0.48 | -0.83 | -0.16 | -0.52 | -0.1 | -0.38 | -0.96 | -1 | Growth Rate (U2OS; 0 h, replicate number 1): -1; Growth Rate (U2OS; 0 h, replicate number 2): -0.54; Growth Rate (U2OS; 18 h, replicate number 1): -0.87; Growth Rate (U2OS; 18 h, replicate number 2): -0.58; Growth Rate (U2OS; 24 h, replicate number 2): -0.49; Growth Rate (Fibroblast; 6 h, replicate number 2): -1; Growth Rate (Fibroblast; 18 h, replicate number 2): -0.88
Cl.O=C(O)CCCN1CCC[C@H]1COc1ccc(Oc2ccc(Cl)cc2)cc1 |  |  |  | 0.94 | 0.91 |  | 0.93 | 0.87 |  |  | 0.64 | -0.09 | 0.9 | 0.12 |  | 0.37 | 0.98 | 0.53 | 0.84 | -1 | 
CC(C)Oc1ccc(Cc2ccc(NC3=NCCN3)cc2)cc1 |  | 0.64 |  | 0.58 | -0.34 | -0.06 | 0.88 | 0.24 | 0.26 |  | -0.15 | -0.39 | 0.09 | 0.14 | 0.26 | 0.42 | 0.37 | 0.45 | 0.1 | -1 | Growth Rate (U2OS; 0 h, replicate number 1): 0.6; Growth Rate (U2OS; 18 h, replicate number 1): 0.59; Growth Rate (Fibroblast; 0 h, replicate number 2): -0.09; Growth Rate (Fibroblast; 6 h, replicate number 2): 0
